Assay results from patent US20080193563A1, “HARNESSING WNT SIGNALING TO RESTRICT HIV REPLICATION” (priority 2006, published 2008).

Tests used:
[1] = tested on: IFNγ, GM-CSF and TNFγ receptors on U87MG; experiment: Cytokine receptor expression on U87MG by flow cytometry; format: cell-based, human; conditions: 24-hour treatment
Protocol: U87MG (A) or HFA (B) were left untreated or treated with GM-CSF (50 ng/ml), IFNγ100 ng/ml) or TNFγ100 ng/ml). […] Percent expression of GM-CSF receptor (R), IFNγR, and TNFγR was measured 24 hours post-stimulation by flow cytometry. Data is representative of three experiments. Error bars represent standard deviations of the mean.
Prior to evaluating if GM-CSF, IFNγ, and TNFγ can augment HIV replication of astrocytes, a question was whether U87MG and HFA express the respective cytokine receptors. U87MG and HFA were treated with or without the respective cytokine for 24 hours and cytokine receptor expression was evaluated by flow cytometry. Approximately 35% of U87MG expressed the IFNγ receptor and a low level of GM-CSF and TNFγ receptors (<8%; FIG. 3A). […] Untreated HFA expressed only low levels of IFNγ receptor (6%) and this expression was abrogated with IFNγ treatment. GM-CSF and TNFγ receptors were not expressed on HFA.

[2] = tested on: CD4, hMR, CCR1, D6 on U87MG; experiment: HIV receptor and chemokine co-receptor expression on U87MG by flow cytometry; format: cell-based, human
Protocol: U87MG (A) and HFA (B) were left untreated or treated GM-CSF (50 ng/ml) or IFNγ (100 ng/ml) for 24 h. Expression of receptors on the x-axis was measured by flow cytometry. Isotype refers to mouse IgG. Data is representative of three experiments. Error bars represent standard deviation of the mean. (C). IFNγ up-regulates D6 on U87MG cells. U87MG were left untreated or treated with IFNγ. After 3 days, the cells were immunostained with anti-D6 or isotype antibodies. The first histogram (peak) represents isotype control; the dark shaded histogram represents untreated cultures, and the third histogram (peak) represents IFNγ-treated cultures. Data is typical of quadruplet experiments.
Because IFNγ was a potent cytokine in inducing HIV infection of astrocytes, it was determined whether IFNγ treatment modulated key HIV receptors CD4, human mannose receptor D6 and co-receptors (CCR1, CCR2, CCR3, CXCR4, and CCR5) for HIV infection. U87MG is human mannose receptor (hMR) […] (FIG. 5). However, hMR was not detected on HFA, which may be regulated by the differentiation stage of the HFA (FIG. 5 (B)). CD4 and hMR expression in both U87MG and HFA was not augmented by IFNγ or GM-CSF (FIG. 5(A)-(B)). […] HFA were positive for CXCR4 (12%), but its expression was not augmented by GM-CSF or IFNγ treatment (FIG. 5B). IFNγ was reported to enhance CXCR4 and CCR5 expression on simian adult astrocytes, which is in contrast to data on human fetal astrocytes highlighting a discrepancy between simian adult and human fetal astrocytes. […] Infection of U87MG and HFA with a T-tropic isolate (IIIB), while it was productive, was not enhanced by cytokine pre-treatment. This may be a consequence of the laboratory adapted HIV IIIB, therefore primary T-tropic or dual tropic strains may still be responsive to IFNγ pre-treatment of astrocytes. Recently, the CC chemokine receptor D6 was identified as a functional co-receptor for primary HIV infection of astrocytes.

[3] = tested on: HIV reverse transcription in U87MG; experiment: Early and late HIV reverse transcription in U87MG, real-time PCR; format: cell-based; conditions: IFNγ pre-treated 24 h
Protocol: FIG. 31 Comparative analysis of early and late HIV reverse transcription (RT) between infected untreated and infected IFN-γ treated astrocytes. U87MG cells were left untreated or treated with IFN-γ prior to HIV infection as described in Materials and Methods. Total DNA was isolated and amplified for tierh early HIV reverse transcription (reverse transcription initiation) using primer pair R and U5 at 24 h postinfection or late HIV transcription using primer pair R and 5NC at 96 h postinfection. (A) Comparison of amplified HIV DNA between untreated and IFN-γ-treated cultures. […] Rn stands for reading normalized, which equals the SyberGreen value divided by the ROX reference dye value.
Restriction to HIV replication is not at the level of HIV entry and reverse transcription. […] Early HIV reverse transcription was evaluated by real-time PCR at […] post-infection by amplifying with the R/U5 primer pairs, which detect negative-strand “strong-stop” DNA indicative of reverse transcription initiation. […]
Levels of HIV reverse transcription are similar between untreated and IFN-γ-treated astrocytes. […] Early HIV reverse transcription was evaluated by real-time PCR at 24 h postinfection by amplification with the R/U5 primer pair, which detects negative-strand “strong-stop” DNA indicative of reverse transcription initiation). […]

IFNγ: cytokine secreted by lymphocytes, activated microglia and astrocytes; used to prime astrocytes
Down-regulation of IFNγ receptor expression [1]: 2 fold | IFNγ receptor expression after treatment ([1]; untreated approximately 35%): approximately 15% | CD4 and hMR expression [2]: not augmented | Up-regulation of CCR1 expression ([2]; 24 h treatment): 4 fold | Up-regulation of D6 expression ([2]; 3 days): 6 fold | Early HIV reverse transcription DNA (R/U5) vs untreated [3]: similar | Late HIV reverse transcription DNA (R/5NC) vs untreated [3]: similar
